Like-named read-outs stand apart in the source and are kept apart here.
Test system: ulcer
Test: Anti-ulcer test (restraint and water immersion ulcer in rats, i.p.)
Type: in vivo, Male Wistar rats
Settings: Rattus norvegicus, ip, read-out: % Inhibition of Ulcer
Procedure, shortened: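 Compound given intraperitoneally in saline to 24 h-fasted male Wistar rats about 150 g, followed after one hour by 6 h restraint with water immersion at 21 °C. Gastric lesions graded 0, 0.5, 1, 2 or 3 on microscopic inspection and converted to percent ulcer inhibition.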

Compound	inhibition in vivo at 25 mg/kg (25 mg/kg i.p.)	inhibition in vivo at 25 mg/kg
CCCCCCCCCCCCCCCCCC(=O)Oc1cccc2c1C(=O)OC(C(CC(C)C)NC(=O)C(OC)C(O)C(N)CC(N)=O)C2 (stereo not drawn) [VII-9-2]	56%	–
COC(C(=O)NC(CC(C)C)C1Cc2cccc(OC(C)=O)c2C(=O)O1)C(O)C(N)CC(N)=O (stereo not drawn) [VII-9-3]	72%	–
CCCC(=O)Oc1cccc2c1C(=O)OC(C(CC(C)C)NC(=O)C(OCC)C(O)C(N)CC(N)=O)C2 (stereo not drawn) [VII-9-4]	78%	–
CCCNC(CC(N)=O)C(O)C(O)C(=O)NC(CC(C)C)C1Cc2cccc(O)c2C(=O)O1 (stereo not drawn) [VII-10-1]	94%	–
CCCCCNC(CC(N)=O)C(O)C(O)C(=O)NC(CC(C)C)C1Cc2cccc(O)c2C(=O)O1 (stereo not drawn) [VII-10-2]	–	94%
CCCCCCCCNC(CC(N)=O)C(O)C(O)C(=O)NC(CC(C)C)C1Cc2cccc(O)c2C(=O)O1 (stereo not drawn) [VII-10-3]	94%	–
CCCCNC(=O)CC(NCCCC)C(O)C(O)C(=O)NC(CC(C)C)C1Cc2cccc(O)c2C(=O)O1 (stereo not drawn) [VII-10-4]	72%	–
CCCCCCCCCCCCCCCCCCNC(CC(N)=O)C(O)C(O)C(=O)NC(CC(C)C)C1Cc2cccc(O)c2C(=O)O1 (stereo not drawn) [VII-10-5]	89%	–
CCNC(CC(N)=O)C(O)C(OC(C)=O)C(=O)NC(CC(C)C)C1Cc2cccc(O)c2C(=O)O1 (stereo not drawn) [VII-11-1]	72%	–
CCCCNC(CC(N)=O)C(O)C(OC(=O)CCC)C(=O)NC(CC(C)C)C1Cc2cccc(O)c2C(=O)O1 (stereo not drawn) [VII-11-3]	–	66%
CCNC(CC(=O)NCCCl)C(O)C(OC(=O)CC)C(=O)NC(CC(C)C)C1Cc2cccc(O)c2C(=O)O1 (stereo not drawn) [VII-11-4]	–	56%
CCNC(CC(N)=O)C(O)C(OC(=O)CC)C(=O)NC(CC(C)C)C1Cc2cccc(OC(=O)C(C)C)c2C(=O)O1 (stereo not drawn) [VII-12-1]	56%	–
CCNC(CC(N)=O)C(O)C(O)C(=O)NC(CC(C)C)C1Cc2cccc(OC(C)=O)c2C(=O)O1 (stereo not drawn) [VII-13-1]	83%	–
CC(=O)Oc1cccc2c1C(=O)OC(C(CC(C)C)NC(=O)C(O)C(O)C(CC(N)=O)NCC(C)C)C2 (stereo not drawn) [VII-13-2]	83%	–
CCNC(CC(N)=O)C(O)C(O)C(=O)NC(CC(C)C)C1Cc2cccc(OC(=O)CC)c2C(=O)O1 (stereo not drawn) [VII-13-3]	83%	–
CCCCOc1cccc2c1C(=O)OC(C(CC(C)C)NC(=O)C(O)C(O)C(CC(=O)NC)NCC)C2 (stereo not drawn) [VII-14-1]	72%	–
CCNC(CC(N)=O)C(O)C(O)C(=O)NC(CC(C)C)C1Cc2cccc(OC)c2C(=O)O1 (stereo not drawn) [VII-14-2]	83%	–

Compound	inhibition in vivo at 25 mg/kg (25 mg/kg i.p.)	inhibition in vivo at 25 mg/kg
CCNC(=O)CC(NCC)C(O)C(OC(=O)CC)C(=O)NC(CC(C)C)C1Cc2cccc(OC)c2C(=O)O1 (stereo not drawn) [VII-15-4]	44%	–
CCNC(CC(N)=O)C(O)C(OC)C(=O)NC(CC(C)C)C1Cc2cccc(OCC)c2C(=O)O1 (stereo not drawn) [VII-16-1]	–	56%
CCCCOc1cccc2c1C(=O)OC(C(CC(C)C)NC(=O)C(OC)C(O)C(CC(=O)NCC)NCC)C2 (stereo not drawn) [VII-16-4]	44%	–
CCCCOC(C(=O)NC(CC(C)C)C1Cc2cccc(O)c2C(=O)O1)C(O)C(CC(N)=O)NCC (stereo not drawn) [VII-17-1]	78%	–
CCCCCCCCCCCCCCCCCCNC(CC(N)=O)C(O)C(OCCCC)C(=O)NC(CC(C)C)C1Cc2cccc(O)c2C(=O)O1 (stereo not drawn) [VII-17-2]	56%	–
CCNC(CC(N)=O)C(O)C(OC)C(=O)NC(CC(C)C)C1Cc2cccc(O)c2C(=O)O1 (stereo not drawn) [VII-17-3]	89%	–
CCCCOC(C(=O)NC(CC(C)C)C1Cc2cccc(OC(C)=O)c2C(=O)O1)C(O)C(CC(N)=O)NCC (stereo not drawn) [VII-18-1]	66%	–
CCNC(CC(N)=O)C(O)C(OC)C(=O)NC(CC(C)C)C1Cc2cccc(OC(=O)C(C)C)c2C(=O)O1 (stereo not drawn) [VII-18-3]	56%	–
CNC(CC(N)=O)C(O)C(O)C(=O)NC(CC(C)C)C1Cc2cccc(O)c2C(=O)O1 (stereo not drawn) [VII-19-1]	100%	–
CNC(CC(N)=O)C(O)C(OC(C)=O)C(=O)NC(CC(C)C)C1Cc2cccc(O)c2C(=O)O1 (stereo not drawn) [VII-20-1]	89%	–
CNC(CC(N)=O)C(O)C(OC(=O)CC(C)C)C(=O)NC(CC(C)C)C1Cc2cccc(O)c2C(=O)O1 (stereo not drawn) [VII-20-2]	66%	–
CNC(CC(N)=O)C(O)C(OC(C)=O)C(=O)NC(CC(C)C)C1Cc2cccc(OC(C)=O)c2C(=O)O1 (stereo not drawn) [VII-21-1]	66%	–
CNC(CC(N)=O)C(O)C(O)C(=O)NC(CC(C)C)C1Cc2cccc(OC(C)=O)c2C(=O)O1 (stereo not drawn) [VII-22-1]	78%	–
CCOc1cccc2c1C(=O)OC(C(CC(C)C)NC(=O)C(O)C(O)C(CC(N)=O)NC)C2 (stereo not drawn) [VII-23-1]	89%	–
CCCCNC(=O)CC(NC)C(O)C(O)C(=O)NC(CC(C)C)C1Cc2cccc(OCC)c2C(=O)O1 (stereo not drawn) [VII-23-2]	66%	–
CNC(CC(N)=O)C(O)C(O)C(=O)NC(CC(C)C)C1Cc2cccc(OC)c2C(=O)O1 (stereo not drawn) [VII-23-5]	89%	–

From patent US4393225A, “AI-77 Compounds and pharmaceutically acceptable salts thereof” (Asahi Kasei Kogyo Kabushiki Kaisha, priority 1979, dated 1983)
